Counter-ions that a name gives are not always drawn. Like-named read-outs stand apart in the source and are kept apart here.

These results are taken from patent US7196199B2, “Phenoxypropylamine compounds” (Mitsubishi Pharma Corporation, priority 1999, dated 2007).

One data set has as its target T1, 5-HT transporter (Rattus norvegicus, UniProt P31652).
T1 construct: Rat brain cortex was homogenized using Polytron; from tissue; host or cells: rat brain cortex membranes
Put plainly: 5-HT transporter binding test. The method, then: Rat brain cortex was homogenized using Polytron in ice-cooled 50 mmol/L Tris-HCl buffer (pH 7.4). After centrifugation at 1000×g and 4° C. for 10 min, the supernatant was transferred to a different centrifugation tube. This was centrifuged at 40000×g and 4° C. for 20 min, and 50 mmol/L Tris-HCl buffer (pH 7.4) was added to the sediment to give a suspension. This was incubated at 37° C. for 10 min, centrifuged at 40000×g and 4° C. for 20 min, and suspended in 50 mmol/L Tris-HCl buffer (pH 7.4) (diluted 100-fold of brain wet weight) containing 120 mmol/L NaCl and 5 mmol/L KCl, which was used as a membrane solution. For binding inhibition test, it was reacted with (^3H) paroxetine prepared to the final concentration of 0.2 nmol/L in a plastic test tube at 25° C. for 90 min. For total binding, a solvent was used and for nonspecific binding, fluvoxamine having a final concentration of 10 μmol/L was used.
Using a cell harvester, the reaction mixture was filtered through a GF/B glass filter treated with 0.1% polyethyleneimine to stop the reaction and washed 3 times with 3 mL of ice-cooled 50 mmol/L Tris-HCl buffer (pH 7.4). The radioactivity was measured using a β plate.

Data set [1] addresses T2, 5-HT1A receptor (Rattus norvegicus, UniProt P19327).
T2 sequence (P19327 1-422): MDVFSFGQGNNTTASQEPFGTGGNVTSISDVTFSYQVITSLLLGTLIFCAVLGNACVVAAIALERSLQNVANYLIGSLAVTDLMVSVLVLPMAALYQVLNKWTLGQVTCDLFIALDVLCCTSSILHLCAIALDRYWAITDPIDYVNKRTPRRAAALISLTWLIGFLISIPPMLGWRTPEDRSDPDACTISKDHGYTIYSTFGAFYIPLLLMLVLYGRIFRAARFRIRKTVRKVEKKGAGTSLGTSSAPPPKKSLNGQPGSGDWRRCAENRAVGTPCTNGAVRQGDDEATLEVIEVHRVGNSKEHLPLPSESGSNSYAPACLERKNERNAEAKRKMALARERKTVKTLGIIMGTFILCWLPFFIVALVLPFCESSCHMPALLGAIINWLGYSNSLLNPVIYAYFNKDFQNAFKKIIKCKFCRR
Kind of data set: Electrophysical evaluation of agonist/antagonist of 5-HT1A receptor (nystatin perforated patch clamp, dorsal raphe nuclei cell). The data set is classed as cell-based. The following applies: 10^−7 mol/L, isolated rat dorsal raphe nuclei cell; for antagonistic action (% of control) of the test substance on the 8-OH-DPAT induced inward K+ current: 8-OH-DPAT 10^−7 mol/L. The arrangement: The isolated nerve cell (dorsal raphe nuclei cell) was subjected to nystatin perforated patch clamp method; endogenous in cells; host or cells: acutely dissociated dorsal raphe nuclei neurons of 2-week-old male Wistar rat. How it is done: The experiment followed the method of Katayama et al (Brain Res.; 745, 283–292, 1997).
The brain of 2-week-old male Wistar rat was extracted, and a brain thin section (thickness 350 μm) containing dorsal raphe nuclei was prepared using a microslicer. The brain thin section was treated in Ringer's solution containing pronase (0.4 mg/mL) and protease type X (0.25 mg/mL) at 30° C. for 25 min and 15 min, respectively, and the dorsal raphe nuclei region was micropunched out. The brain thin section punched out was subjected to pipetting in a culture dish filled with the Ringer's solution to isolate the nerve cell. The isolated nerve cell (dorsal raphe nuclei cell) was subjected to nystatin perforated patch clamp method (Akaike & Harata, Jpn. J. Physiol.; 44, 433–437, 1994) and the inward K^+ current induced by the test substance and the like was measured under membrane voltage-clamp condition (VH=−60 mV). For the measurement of the inward K^+ current via the 5-HT1A receptor, an extracellular solution and a patch pipette solution having the following compositions were used simultaneously. • extracellular solution (mmol/L): NaCl, 135; KCl, 20; MgCl2, 1; CaCl2, 2; D-glucose, 10; HEPES, 10; tetrodotoxin, 3×10^−4; LaCl3, 10 • patch pipette solution (mmol/L): KCl, 150; HEPES, 10
To the above-mentioned patch pipette solution was added nystatin. (Sigma, Lot No. 33H0762) to the final concentration of 75 μg/mL before the electric measurement.
The current response was measured with a voltage clamp amplifier (List Medical, L/M-EPC7), and the obtained results were recorded on a chart of a recticorder (Nihondenki Sanei, RECTIHORIZ-8K), digitized by a PCM recording device (NF electric Instruments, RP-882) and videotaped by a VCR (Panasonic, NV-G40).
The administration of the test substance and the like followed a Y-tube method (Murase et al., Brain Res.; 525, 84–91, 1990).
First, 8-OH-DPAT (10^−7 mol/L) was administered to the isolated nerve cell (dorsal raphe nuclei cell) obtained above, and the level of the inward K^+ current response was measured.
8-OH-DPAT was washed out for 2 min from the above-mentioned cells and the test substance and pindolol (reference substance which is an antagonist) were administered for 1 min, and the level of the inward K^+ current response by each of them was measured. From immediately after administration of the test substance or the reference substance, a mixture of 8-OH-DPAT ([…]) and the test substance or reference substance was administered, and the level of the induced inward K^+ current response was measured. The measurement results and the level of the current response in the same cell by 8-OH-DPAT alone were compared, based on which the antagonistic action on the 8-OH-DPAT induction current was considered. Every current response was expressed upon standardizing according to the following calculation equation based on the level of the 8-OH-DPAT (10^−7 mol/L) induction current in the same cell.
The inward K^+ current response inducing action (5-HT1A agonistic action) by the test substance alone was determined from the following equation. inward K^+ current response inducing action (%) by test substance alone=(ITD÷IDPAT)×100 • ITD: level of inward K^+ current response by test substance alone • IDPAT: level of 8-OH-DPAT (10^−7 mol/L) induced inward K^+ current in the same cell
The suppressive effect (5-HT1A antagonistic action) on the 8-OH-DPAT induced inward K^+ current by the test substance was determined according to the following equation. antagonistic action of test substance on 8-OH-DPAT induced inward K^+ current (% of control)=(IMIX÷IDPAT)×100
IMIX: level of 8-OH-DPAT (10^−7 mol/L) induced inward K^+ current in the presence of test substance

Data set [2] has as its target T2, 5-HT1A receptor. Put plainly: 5-HT1A receptor binding test. The method, then: The experiment was conducted according to the method of M. D. Hall et al (J. Neurochem. 44, 1685–1696 (1985)).
Cryopreserved rat hippocampus was homogenized in a 20-fold wet weight amount of 50 mM Tris-HCl buffer (pH 7.4), and the homogenate was centrifuged at 500×g for 10 min. The supernatant was centrifuged at 40000×g for 10 min and the sediment was incubated at 37° C. for 10 min, which was followed by centrifugation at 40000×g for 10 min. To the sediment was added a 20-fold amount of 50 mM Tris-HCl buffer (pH 7.4) and the mixture was homogenized, which was followed by centrifugation again at 40000×g for 10 min. 50 mM Tris-HCl buffer (pH 7.4, 100-fold volume) containing 1 mM MnCl2 was added to the sediment and the mixture was homogenized, which was used as a membrane solution. To a 96 well plate were successively added a test solution ([…]), (^3H)-8-OH-DPAT ((±)-8-hydroxy-2-(DL-N-propylamino)tetraline, Sigma, lot No. 57H4131) solution (final concentration 2 nM, […]) and the membrane solution (0.45 ml) preincubated at 37° C., and incubated at 37° C. for 12 min. After completion, the reaction mixture was filtered through a GF/B glass filter and the filter was washed 5 times with 50 mM Tris-HCl buffer (pH 7.4). The radioactivity left on the filter was measured with a Top Count. For total binding measurement, 0.005N hydrochloric acid ([…]) was used, and for the measurement of nonspecific binding, a test solution containing WAY-100635 (final concentration […]) instead of the test substance was used. The total binding and nonspecific binding were measured in quadruplicate, and the test substance was measured in duplicate.
The IC50 value was calculated by two-point interpolation and Ki value was calculated according to the following equation using Kd value obtained from each measurement. Ki=IC50/(1+C/Kd)
IC50: concentration of 50% binding inhibition
C: concentration of ligand

The mark [3] stands for this setting: rat brain cortex membrane, (3H) paroxetine 0.2 nmol/L, read-out: 5-HT transporter binding Ki value.
[4] abbreviates: rat hippocampus membrane, (3H)-8-OH-DPAT 2 nM, read-out: 5-HT1A receptor binding Ki value.

T1 sequence (P31652 whole entry): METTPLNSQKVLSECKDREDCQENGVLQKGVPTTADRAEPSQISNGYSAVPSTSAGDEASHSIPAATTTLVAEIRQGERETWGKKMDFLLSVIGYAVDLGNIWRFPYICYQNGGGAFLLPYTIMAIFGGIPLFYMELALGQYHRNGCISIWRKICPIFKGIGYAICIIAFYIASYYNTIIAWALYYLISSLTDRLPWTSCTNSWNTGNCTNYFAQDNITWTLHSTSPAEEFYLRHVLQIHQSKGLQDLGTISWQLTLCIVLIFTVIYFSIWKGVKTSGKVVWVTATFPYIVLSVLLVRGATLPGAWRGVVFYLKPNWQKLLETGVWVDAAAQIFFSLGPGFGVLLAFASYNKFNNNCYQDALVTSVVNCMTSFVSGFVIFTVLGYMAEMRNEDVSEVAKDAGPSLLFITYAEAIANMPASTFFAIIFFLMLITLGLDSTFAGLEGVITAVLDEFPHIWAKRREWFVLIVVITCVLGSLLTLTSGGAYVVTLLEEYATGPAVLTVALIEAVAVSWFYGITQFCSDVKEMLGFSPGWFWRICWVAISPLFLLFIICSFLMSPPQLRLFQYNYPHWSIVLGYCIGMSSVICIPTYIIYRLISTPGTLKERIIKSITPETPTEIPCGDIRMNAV

In general, Ki refers to a measure of affinity in units of concentration, obtained from inhibition or displacement. For the molecule `CC(C)c1nnc(-c2cc3c(OC[C@@H](O)CN4CCC(c5ccc6c(c5)OCO6)CC4)cccc3o2)o1` [Example 138, (S)-1-(2-(5-(1-methylethyl)-1,3,4-oxadiazol-2-yl)benzo(b)furan-4-yloxy)-3-(4-(3,4-methylenedioxyphenyl)piperidino)-2-propanol hydrochloride], the inhibitory constant (Ki) on 5-HT transporter (setting [3]) was determined as 1.6 nM. At 5-HT1A receptor [1], the “antagonistic action (% of control) of the test substance on the 8-OH-DPAT induced inward K+ current” value was “almost nil”, the “agonist/antagonist character at 5-HT1A receptor” value (“agonist/antagonist character” for short) is “silent antagonists” and the “inward K+ current inducing action (%) by the test substance alone” value (shortened to “inward K+ current inducing action (%)”) is listed as “almost nil”. Moreover, the Ki on 5-HT1A receptor [2] (setting [4]) came to 0.68 nM.
`Cc1nnc(-c2cc3c(OC[C@@H](O)CN4CCC(c5ccc(Cl)c(Cl)c5)CC4)cccc3o2)o1` [Example 88, (S)-1-(4-(3,4-dichlorophenyl)piperidino)-3-(2-(5-methyl-1,3,4-oxadiazol-2-yl)benzo(b)furan-4-yloxy)-2-propanol hydrochloride 1/4 hydrate]: the Ki at 5-HT transporter (setting [3]) was 0.32 nM. Besides, at 5-HT1A receptor [1], the “antagonistic action (% of control) of the test substance on the 8-OH-DPAT induced inward K+ current” value was “almost nil”, the “agonist/antagonist character” value is “silent antagonists” and the “inward K+ current inducing action (%)” value was “almost nil”. In addition, at 5-HT1A receptor [2] (setting [4]), the inhibition constant Ki turned out to be 0.75 nM.
As usually defined, the melting point is the temperature, or range, at which the solid turns liquid. With `COc1ccc(C2CCN(C[C@H](O)COc3cccc4oc(-c5nnc(C)o5)cc34)CC2)cc1Cl.Cl`, the melting point was in the range of 218 to 220 °C.
As for `O[C@H](COc1cccc2[nH]ccc12)CN1CCC(O)(c2ccc3ccccc3c2)CC1` [compound for reference, (S)-1-(4-indolyloxy)-3-[4-hydroxy-4-(2-naphthyl)piperidino]propan-2-ol, reference compound], the Ki at 5-HT transporter amounted to 55 nM; at 5-HT1A receptor [2], 0.16 nM. In addition, at 5-HT1A receptor [1], the “agonist/antagonist character” value is recorded as “partial agonist”.
Take `OCc1nnc(-c2cc3c(OC[C@@H](O)CN4CCC(c5ccc(Cl)c(Cl)c5)CC4)cccc3o2)o1` [Example 136, (S)-3-(4-(3,4-dichlorophenyl)piperidino)-1-(2-(5-hydroxymethyl-1,3,4-oxadiazol-2-yl)benzo(b)furan-4-yloxy)-2-propanol]: the inhibitory constant (Ki) on 5-HT transporter (setting [3]) came out at 0.18 nM. Besides, on 5-HT1A receptor [1], the “antagonistic action (% of control) of the test substance on the 8-OH-DPAT induced inward K+ current” value was “almost nil”, the “agonist/antagonist character” value is “silent antagonists” and the “inward K+ current inducing action (%)” value is reported as “almost nil”. The Ki at 5-HT1A receptor [2] (setting [4]) is 0.37 nM.
In turn, `Cc1nnc(-c2cc3c(OC[C@@H](O)CN4CCC(c5ccc6c(c5)CCCS6)CC4)cccc3o2)o1` (as salt: hydrochloride) registered a melting point of 223 to 225 °C.
The molecule `Cc1nnc(-c2cc3c(OC[C@@H](O)CN4CCC(c5ccc(Cl)c(F)c5)CC4)cccc3o2)o1.Cl` showed a melting point of 139 to 141 °C.
In turn, `Cc1nnc(-c2cc3c(OC[C@@H](O)CN4CCC(c5ccc(Cl)c(C(F)(F)F)c5)CC4)cccc3o2)o1` (as salt: hydrochloride) [Example 234, (S)-1-(4-(4-chloro-3-trifluoromethylphenyl)piperidino)-3-(2-(5-methyl-1,3,4-oxadiazol-2-yl)benzo(b)furan-4-yloxy)-2-propanol hydrochloride] showed a melting point of 222 to 224 °C.
Turning to `Cc1nnc(-c2cc3c(OC[C@@H](O)CN4CC=C(c5ccc6occc6c5)CC4)cccc3o2)o1` [Example 238, (S)-1-(4-(benzo(b)furan-5-yl)-5,6-dihydro-2H-pyridin-1-yl)-3-(2-(5-methyl-1,3,4-oxadiazol-2-yl)benzo(b)furan-4-yloxy)-2-propanol], the melting point is 168 to 170 °C.
In turn, `Cc1nnc(-c2cc3c(OC[C@@H](O)CN4CCC(c5ccc(Cl)c(C)c5)CC4)cccc3o2)o1.Cl` came in with a melting point of 184 to 186 °C.
`Cc1nnc(-c2cc3c(OC[C@@H](O)CN4CCC(c5ccc(C)c(Cl)c5)CC4)cccc3o2)o1` (as salt: hydrochloride) had a melting point of 188 to 190 °C.
For `C=C(C)c1nnc(-c2cc3c(OC[C@@H](O)CN4CCC(c5ccc6c(c5)OCO6)CC4)cccc3o2)o1.Cl`, the melting point was in the range of 128 to 130 °C.
On to `Cc1nnc(-c2cc3c(OC[C@@H](O)CN4CC=C(c5ccc6ccoc6c5)CC4)cccc3o2)o1.Cl`, for which the melting point was 135 to 138 °C.
